According to patent US7598258B2, “Quinoline derivatives and quinazoline derivatives inhibiting autophosphorylation of macrophage colony stimulating factor receptor” (Kirin Beer Kabushiki Kaisha, priority 2002, dated 2009):

The compounds below were run against T1, mouse c-fms (Mus musculus, UniProt P09581) (assay: Inhibition of c-fms autophosphorylation in macrophage-like cell line BAC-1.2F5 by M-CSF stimulation (ELISA)). Settings: BAC-1.2F5 cells, human recombinant M-CSF 50 ng/ml, read-out: c-fms autophosphorylation 50% inhibitory concentration (IC50).
T1 construct: Macrophage-like cell line BAC-1.2F5 which expresses c-fms as a M-CSF receptor on cell membranes; endogenous in cells; host or cells: BAC-1.2F5 mouse macrophage-like cell line
T1 sequence (P09581 20-977): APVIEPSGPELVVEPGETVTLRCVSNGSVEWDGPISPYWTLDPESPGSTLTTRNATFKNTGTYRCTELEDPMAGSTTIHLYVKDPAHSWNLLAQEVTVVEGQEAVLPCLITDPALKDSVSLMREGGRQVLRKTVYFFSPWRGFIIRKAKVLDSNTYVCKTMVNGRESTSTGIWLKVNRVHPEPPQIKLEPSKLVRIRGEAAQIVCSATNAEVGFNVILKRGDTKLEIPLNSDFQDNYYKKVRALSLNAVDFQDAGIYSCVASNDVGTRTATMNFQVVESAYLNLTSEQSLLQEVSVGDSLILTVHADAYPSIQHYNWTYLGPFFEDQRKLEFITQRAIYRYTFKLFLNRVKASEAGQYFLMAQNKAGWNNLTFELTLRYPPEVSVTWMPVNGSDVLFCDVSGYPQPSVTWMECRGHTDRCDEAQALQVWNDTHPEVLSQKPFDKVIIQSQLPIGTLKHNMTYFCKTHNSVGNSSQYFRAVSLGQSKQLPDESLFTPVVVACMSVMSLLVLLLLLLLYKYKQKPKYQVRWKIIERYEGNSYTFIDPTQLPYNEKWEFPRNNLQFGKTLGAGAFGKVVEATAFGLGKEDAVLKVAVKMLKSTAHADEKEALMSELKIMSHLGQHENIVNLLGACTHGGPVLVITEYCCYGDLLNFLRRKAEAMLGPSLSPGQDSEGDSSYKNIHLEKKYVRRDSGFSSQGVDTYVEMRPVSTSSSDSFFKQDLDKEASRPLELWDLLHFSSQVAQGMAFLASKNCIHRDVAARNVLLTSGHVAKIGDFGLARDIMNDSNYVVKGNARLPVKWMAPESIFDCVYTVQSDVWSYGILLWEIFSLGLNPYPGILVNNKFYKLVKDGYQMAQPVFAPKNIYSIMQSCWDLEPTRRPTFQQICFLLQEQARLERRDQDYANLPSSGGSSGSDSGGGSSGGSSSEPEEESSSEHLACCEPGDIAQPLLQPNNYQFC
Format: cell-based
Description: Macrophage-like cell line BAC-1.2F5 which expresses c-fms as a M-CSF receptor on cell membranes (CLAUDIA M. et al., J. Cell. Physiol., 130, 420-427 (1987), “Isolation and Characterization of a Cloned Growth Factor Dependent Macrophage Cell Line, BAC1.2F5”) was cultured at 37° C. in a DMEM medium containing L-cell supernatant and 10% fetal calf serum (GIBCO BRL) in a 5% CO2 incubator until about 50 to 70% confluent. The harvested cells were inoculated into wells, each containing the same medium, in a collagen type I coat 96-well flat-bottom plate in an amount of 5.0×10^4 per well, and cultured at 37° C. for 12 hr. Thereafter, the medium was replaced with a DMEM medium containing a 0.1% fetal calf serum and cultured for 12 hr. Thereafter, a test compound dissolved in dimethyl sulfoxide was added to each well, and cells were incubated at 37° C. for one hr. Human recombinant M-CSF was added to a final concentration of 50 ng/ml, and cells were stimulated at 37° C. for 6 min. After the medium was removed, 50 μl of a solubilization buffer (20 mM HEPES (pH 7.4), 150 mM NaCl, 0.2% Triton X-100, 10% glycerol, 5 mM sodium orthovanadylate, 5 mM disodium ethylenediaminetetraacetate, and 2 mM Na4P2O7) was added thereto. The mixture was shaken at 4° C. for 2 hr to prepare a cell extract as an assay sample which was then used for an ELISA assay.
The plate for the ELISA assay was prepared as follows. Phosphate buffered saline (50 μl, pH 7.4) containing 5 μg/ml of anti-phospho-tyrosine antibody (PY20; Transduction Laboratories) was added to a microplate for ELISA (Maxisorp; purchased from NUNC), followed by standing at 4° C. overnight to be immobilized on the wells. Thereafter, each well was washed twice with 200 μl of a Ca- and Mg-free phosphate buffer containing 0.1% Tween-20 (hereinafter referred to as “PBS-T”), and 200 μl of a blocking solution (Dainippon Pharmaceutical Co. Ltd.: BlockAce) was added to each well, and the wells were then allowed to stand at room temperature for 2 hr for blocking.
Separately, phosphate buffered saline (50 μl, pH 7.4) containing 5 μg/ml of anti-phospho-tyrosine antibody (PY20; Transduction Laboratories) was added to a microplate for ELISA (Maxisorp; purchased from NUNC), followed by standing at 4° C. overnight to form a solid phase on the wells. After washing of the plate, 300 μl of a blocking solution was added, followed by standing at room temperature for 2 hr to perform blocking. After washing, the whole quantity of the cell extract was transferred to the wells, and the plate was then allowed to stand at 4° C. overnight. After washing, anti-c-fms antiserum (Upstate Biotechnology, Inc.) was allowed to react at room temperature for one hr, and, after washing, a peroxidase-labeled anti-rabbit Ig antibody (Amersham) was allowed to react at room temperature for one hr. After washing, a chromophoric substrate for peroxidase (Sumitomo Bakelite Co., Ltd.) was added thereto to initiate a reaction. After a suitable level of color development, a reaction termination solution was added to stop the reaction, and the absorbance at 450 nm was measured with a microplate reader. The c-fms phosphorylation activity for each well was determined by presuming the absorbance without the addition of the test compound and with the addition of M-CSF to be 100% c-fms phosphorylation activity and the absorbance without the addition of the test compound and M-CSF to be 0% c-fms phosphorylation activity. The concentration of the test compound was varied on several levels, the c-fms phosphorylation inhibitory rate was determined for each case, and the concentration of the test compound necessary for inhibiting 50% of c-fms phosphorylation (IC50) was calculated.

| SMILES | IC50 [nM] |
| --- | --- |
| COc1cc2nccc(Oc3ccc(NC(=O)NC(C)c4ncc(C)s4)c(C)c3)c2cc1OC (stereo not shown) [Example 103, N-{4-[(6,7-Dimethoxy-4-quinolyl)oxy]-2-methylphenyl}-N′-[1-(5-methyl-1,3-thiazol-2-yl)ethyl]urea] | 69.6 |
| COc1cc2nccc(Oc3ccc(NC(=O)N[C@@H](C)c4ccc(F)cc4)c(C(F)(F)F)c3)c2cc1OC [Example 20, N-[4-[(6,7-Dimethoxy-4-quinolyl)oxy]-2-(trifluoromethyl)phenyl]-N′-[(1S)-1-(4-fluorophenyl)ethyl]urea] | 6.2 |
| COc1cc2nccc(Oc3ccc(NC(=O)N[C@H](C)c4cccc(Br)c4)c(Cl)c3)c2cc1OC [Example 55, N-[(1R)-1-(3-Bromophenyl)ethyl]-N′-{2-chloro-4-[(6,7-dimethoxy-4-quinolyl)oxy]phenyl}urea] | 45.4 |
| COc1cc2nccc(Oc3ccc(NC(=O)NC(C)c4nc(C)cs4)cc3)c2cc1OC (stereo not shown) [Example 91, N-{4-[(6,7-Dimethoxy-4-quinolyl)oxy]phenyl}-N′-[1-(4-methyl-1,3-thiazol-2-yl)ethyl]urea] | 3.2 |
| COc1cc2nccc(Oc3ccc(NC(=O)NC(C)c4ncc(C)s4)cc3)c2cc1OC (stereo not shown) [Example 100, N-{4-[(6,7-Dimethoxy-4-quinolyl)oxy]phenyl}-N′-[1-(5-methyl-1,3-thiazol-2-yl)ethyl]urea] | 15.7 |
| COc1cc2nccc(Oc3ccc(NC(=O)N[C@H](C)c4ccc(F)cc4)cc3F)c2cc1OC [Example 33, N-{4-[(6,7-Dimethoxy-4-quinolyl)oxy]-3-fluorophenyl}-N′-[(1R)-1-(4-fluorophenyl)ethyl]urea] | 6.5 |
| COc1cc2nccc(Oc3ccc(NC(=O)N[C@H](C)c4cccc(Br)c4)cc3OC)c2cc1OC [Example 61, N-[(1R)-1-(3-Bromophenyl)ethyl]-N′-{4-[(6,7-dimethoxy-4-quinolyl)oxy]-3-methoxyphenyl}urea] | 44.3 |
| COc1cc2nccc(Oc3ccc(NC(=O)N[C@@H](C)c4ccc(F)cc4)c(Cl)c3)c2cc1OC [Example 5, N-{2-Chloro-4-[(6,7-dimethoxy-4-quinolyl)oxy]phenyl}-N′-[(1S)-1-(4-fluorophenyl)ethyl]urea] | 2.2 |
| COc1cc2nccc(Oc3ccc(NC(=O)N[C@H](C)c4cccc(Br)c4)c(C)c3C)c2cc1OC [Example 62, N-[(1R)-1-(3-Bromophenyl)ethyl]-N′-{4-[(6,7-dimethoxy-4-quinolyl)oxy]-2,3-dimethylphenyl}urea] | 29.4 |
| COc1cc2c(Oc3ccc(NC(=O)NC(C)c4ccc(F)cc4F)c(F)c3)ccnc2cc1OCCCN1CCOCC1 (stereo not shown) [Example 69, N-[1-(2,4-Difluorophenyl)ethyl]-N′-(2-fluoro-4-{[6-methoxy-7-(3-morpholinopropoxy)-4-quinolyl]oxy}phenyl)urea] | 11.5 |
| COc1cc2nccc(Oc3ccc(NC(=O)N[C@@H](C)c4nccs4)cc3)c2cc1OC [Example 78, N-{4-[(6,7-Dimethoxy-4-quinolyl)oxy]phenyl}-N′-[(S)-1-(1,3-thiazol-2-yl)ethyl]urea] | 2.9 |

Continued by falling IC50, values first:

| IC50 [nM] | SMILES |
| --- | --- |
| 22.5 | COc1cc2nccc(Oc3cc(C)c(NC(=O)N[C@@H](C)c4ccc(F)cc4)cc3C)c2cc1OC [Example 8, N-{4-[(6,7-Dimethoxy-4-quinolyl)oxy]-2,5-dimethylphenyl}-N′-[(1S)-1-(4-fluorophenyl)ethyl]urea] |
| 20.2 | COc1cc2nccc(Oc3cc(C)c(NC(=O)NC(C)c4ccc(F)cc4)cc3C)c2cc1OC (stereo not shown) [Example 7, N-{4-[(6,7-Dimethoxy-4-quinolyl)oxy]-2,5-dimethylphenyl}-N′-[1-(4-fluorophenyl)ethyl]urea] |
| 12.9 | COc1cc2nccc(Oc3ccc(NC(=O)NC(C)c4ccc(F)cc4)cc3F)c2cc1OC (stereo not shown) [Example 31, N-{4-[(6,7-Dimethoxy-4-quinolyl)oxy]-3-fluorophenyl}-N′-[1-(4-fluorophenyl)ethyl]urea] |
| 10.2 | COc1cc2nccc(Oc3ccc(NC(=O)NC(C)c4nccs4)c(C(F)(F)F)c3)c2cc1OC (stereo not shown) [Example 83, N-[4-[(6,7-Dimethoxy-4-quinolyl)oxy]-2-(trifluoromethyl)phenyl]-N′-[1-(1,3-thiazol-2-yl)ethyl]urea] |
| 10.2 | COc1cc2nccc(Oc3ccc(NC(=O)N[C@@H](C)c4nccs4)c(C(F)(F)F)c3)c2cc1OC [Example 84, N-[4-[(6,7-Dimethoxy-4-quinolyl)oxy]-2-(trifluoromethyl)phenyl]-N′-[(1S)-1-(1,3-thiazol-2-yl)ethyl]urea] |
| 6.3 | COc1cc2nccc(Oc3ccc(NC(=O)N[C@@H](C)c4ccc(Br)cc4)cc3)c2cc1OC [Example 34, N-[(1S)-1-(4-Bromophenyl)ethyl]-N′-{4-[(6,7-dimethoxy-4-quinolyl)oxy]phenyl}urea] |
| 6.1 | COc1cc2nccc(Oc3ccc(NC(=O)NC(C)c4ccc(F)cc4)c(C)c3)c2cc1OC (stereo not shown) [Example 13, N-{4-[(6,7-Dimethoxy-4-quinolyl)oxy]-2-methylphenyl}-N′-[1-(4-fluorophenyl)ethyl]urea] |
| 5 | COc1cc(Oc2ccnc3cc(OC)c(OC)cc23)ccc1NC(=O)NC(C)c1nccs1 (stereo not shown) [Example 74, N-{4-[(6,7-Dimethoxy-4-quinolyl)oxy]-2-methoxyphenyl}-N′-[1-(1,3-thiazol-2-yl)ethyl]urea] |
| 3.7 | COc1cc(Oc2ccnc3cc(OC)c(OC)cc23)ccc1NC(=O)N[C@H](C)c1ccc(F)cc1 [Example 18, N-{4-[(6,7-Dimethoxy-4-quinolyl)oxy]-2-methoxyphenyl}-N′-[(1R)-1-(4-fluorophenyl)ethyl]urea] |
| 3.6 | COc1cc(Oc2ccnc3cc(OC)c(OC)cc23)ccc1NC(=O)NC(C)c1nc(C)cs1 (stereo not shown) [Example 90, N-{4-[(6,7-Dimethoxy-4-quinolyl)oxy]-2-methoxyphenyl}-N′-[1-(4-methyl-1,3-thiazol-2-yl)ethyl]urea] |
| 3.1 | COc1cc2nccc(Oc3ccc(NC(=O)N[C@H](C)c4ccc(F)cc4)c(F)c3)c2cc1OC [Example 30, N-{4-[(6,7-Dimethoxy-4-quinolyl)oxy]-2-fluorophenyl}-N′-[(1R)-1-(4-fluorophenyl)ethyl]urea] |
